Patent US20040072750A1, “Compounds and methods for the modulation of CD154” (priority 2001, published 2004)
“Also recorded” adds a separate entry of the source. Bridge positions count the residues as written; N and C are the ends. Square brackets hold non-standard residues; d marks the D form. Peptide text beside a SMILES is read from it. hArg = N=C(N)NCCCC[C@H](N)C(=O)O; Mpa = O=C(O)CCS

Tests used:
platelets [1] = experiment: Release of sCD154 from stimulated platelets in platelet-rich plasma (ELISA); assay type: cell-based, human
Description: Platelet-rich plasma (PRP) was prepared from human donors by obtaining blood through a 19-gauge butterfly into PPACK anticoagulant (8.6 ml of 2.1 mM PPACK, Calbiochem, La Jolla, Calif.: final concentration 0.3 mM). Blood was aliquoted into 15 ml polypropylene tubes and centrifuged at 900 rpm for 20 minutes (160×g). The platelet rich plasma (PRP) was carefully removed and pooled in a new tube. Platelet counts were taken and recorded. Aliquots of PRP at 37° C. were then added to 1.5 ml microcentrifuge tubes containing various amounts of eptifibatide. To initiate aggregation, 20 μM ADP 4 μg/mL collagen or 5 μM TRAP6 was added and samples were rocked on a Nutator for 30 minutes at 37° C. The tubes were put on ice and immediately centrifuged at 15,000×g for 10 minutes at 4° C.
The platelet-poor plasma (PPP) supernatant was removed to new tubes and the levels of sCD154 in these samples were measured by ELISA. There was a time-dependent increase in sCD154 release when platelets were aggregated with either ADP or TRAP6.
In other experiments, various concentrations of eptifibatide, abciximab or tirofiban were added to PRP before the addition of TRAP. In the eptifibatide experiments, the release of βTG from platelet a granules was determined from PPP samples by ELISA. Inhibition of aggregation by GP IIb-IIIa antagonists was determined in PPACK-anticoagulated PRP by light-transmission aggregometry (Chrono-Log) as described in Phillips et al. (1995) J Exp. Med 182:33-40. To assess the effect of aspirin use on the release of sCD154 from platelets, PRP was obtained from 7 donors, incubated with a single concentration of GP IIb-IIIa inhibitor, and stimulated with 20 μmol/L ADP, 5 μmol/L TRAP or 4 μg/mL collagen for 30 minutes while rocking at 37° C. Resultant PPP was measured for sCD154. The same donors then took 325 mg of aspirin for 7 days. PRP was again collected and subjected to the same conditions, and the release of sCD154 was determined. A control reading (no addition of inhibitor) was taken with the agonist 0.5 mmol/L arachidonic acid in citrated PRP to ensure that the aspirin had been taken.

platelets [2] = experiment: Platelet function (Accumetrics RPFA) in patients undergoing PCI; assay type: in vivo, human; settings: 10 minutes post final bolus
Description: (§1) Patients (n=45) undergoing PCI were enrolled. The study was approved by the IRB and all patients signed informed consent. Exclusion criteria included higher risk clinical scenarios mandating, according to institutional clinical practice, the use of GP IIb/IIIa antagonists (i.e., acute ST elevation MI or non q-wave MI with CPK elevation, pain at rest with EKG changes <24 hours, visible thrombus, pain refractory to heparin), pre-procedural GP IIb/IIIa inhibitor treatment, restenotic and graft lesions, and standard conditions excluding GP IIb/IIIa inhibitor use.
(§2) All patients received aspirin and intravenous heparin (50-70U/kg) monitored by activated clotting time (ACT) during the procedure. Patients were administered either no GP IIb/IIIa inhibitor, eptifibatide (180 μg/kg double bolus followed by 2 μg/kg/min for 16 h), or abciximab (0.25 mg/kg bolus intravenously followed by 0.125 μg/kg/min for 12 h) at the discretion of the primary operator. Platelet function was monitored using PPACK-anticoagulated blood and the Accumetrics RPFA device at baseline and 10 min post-final bolus. Interventionalists were blinded to RPFA results and not permitted to modify GP IIb-IIIa inhibitor dosing. Post-PCI, patients received clopidogrel (300 mg PO) followed by 75 mg daily.

[3] = Plasma inflammatory markers after PCI (ELISA); assay type: in vivo, human
Description: as §1, §2
Venous blood samples were collected prior to (t=0) and at 30 minutes, 2 hours, and 24 hours after the angioplasty wire was advanced across the lesion. Blood was collected into 10 mL tubes with either EDTA (for sCD 154 analysis) or PPACK (for all other analyses) anticoagulant, centrifuged at 4° C., and stored at −80° C. until analysis.
Inflammatory markers in plasma samples were quantified by commercially available ELISA for sCD154 (Alexis BioChemical) with modification (12), RANTES, IL6, sICAM-1 (BioSource), and CRP (Alpha Diagnostic International).
Primary endpoint data are presented as mean±SE. Data were log transformed to achieve a normal distribution verified by Kolmogorov-Smirnov test for normality. Statistical comparisons were performed using two-way ANOVA to determine a difference in mean values over time between the 3 groups. Pair-wise comparisons were performed when the ANOVA false-positive rate was ≦5%. A Bonferroni corrective for 3 pair-wise comparisons was applied, in which the p-value of […] was used to signify a false-positive rate of 5%. For ANOVA with a false-positive rate of ≧5%, the pair-wise comparisons were reported to be statistically nonsignificant (NS). Baseline and procedural characteristics data were analyzed with standard one way ANOVA for continuous data in more than 3 groups and a student's t-test for comparison of 2 groups. A Mann-Whitney Rank Sum test was used for nominal data. Statistical significance was assumed if the false positive rate was ≦5%.

platelets [4] = experiment: Release of sCD154 from stimulated platelets in platelet-rich plasma (ELISA); assay type: cell-based, human; settings: unstirred, FIG. 12B
washed platelets = experiment: β3 integrin tyrosine-759 phosphorylation staining of platelets spread on sCD154; assay type: cell-based, human; settings: platelets spread on 10 μg/ml sCD154 coated cover slips
Description: Further, cover slips were coated with 10 μg/ml sCD154 for 2 hours at 37° C. and blocked with 5% crystalline BSA (Sigma chemicals). 100 μl of washed platelets at 10^7/ml were allowed to spread for 1 hour at 37° C. Non-adhered platelets were washed off with PBS. Adhered platelets were fixed with 4% para-formaldehyde and permeabilized with 0.5% Triton X-100 and 0.5% BSA in PBS. Permeabilized platelets were blocked with 3% goat serum and 2% BSA for 30 min. followed by incubation with a IIIa(p3) integrin cytoplasmic tyrosine-759 phospho-specific polyclonal antibody for 2 hours at room temperature. After 30 minutes washing with PBS containing 0.1% Triton X-100 and 0.5% BSA, the coverslips were incubated with a Alexa 596 goat anti-rabbit antibody and Alexa fluor 488 phalloidin for 40 min. followed by a brief wash and mounted on slides with VECTASHIELD (Vector laboratories, Burlingame, Calif.). Images were recorded using a digital camera, Hamamatsu, ORCA-ER attached to a Nikon fluorescence microscope, eclipse E1000 (Technical Instruments, San Francisco, Calif.). […] The staining was inhibited by β3 759 phospho-peptide confirming the specificity of the antibody (FIG. 11b).

N=C(N)NCCCC[C@@H]1NC(=O)CCSSC[C@@H](C(N)=O)NC(=O)[C@@H]2CCCN2C(=O)[C@H](Cc2c[nH]c3ccccc23)NC(=O)[C@H](CC(=O)O)NC(=O)CNC1=O [eptifibatide] ([Mpa][hArg]GDWPC-NH2; disulfide 1-7)
Inhibition of sCD154 Release at >90% Platelet Aggregation Inhibition, % (platelets [1]; TRAP-stimulated platelets, release without GP IIb-IIIa inhibitor set at 100%, average and SD): 85 ± 6.3% | release of sCD154 from platelets activated with ADP or TRAP (platelets [1]; inhibitor added prior to agonist, PPACK plasma): blocked in a dose dependent manner; also recorded: inhibited | Potentiation of sCD154 Release, % (platelets [1]; maximal potentiation, TRAP-stimulated platelets, release without inhibitor set at 100%, average and SD): 26 ± 10% | Platelet inhibition (% inhibition) (platelets [2]): 98±3% | rise of sICAM-1 and IL-6 after PCI ([3]; 2-24 hours after PCI, not statistically significant): lowest level of rise | plasma sCD154 levels after PCI ([3]; 30 minutes, 2 hours, 24 hours versus baseline): significantly lower than baseline | plasma RANTES levels after PCI ([3]; versus baseline): significant reductions | sCD154 shedding from TRAP-activated platelets without aggregation (platelets [4]): inhibited

B1: rsCD154: bacterially expressed recombinant human soluble CD154 (108 a.a-261 a.a.), 18-kDa protein (protein)
chain: ENSFEMQKGDQNPQIAAHVISEASSKTTSVLQWAEKGYYTMSNNLVTLENGKQLTVKRQGLYYIYAQVTFCSNREASSQAPFIASLCLKSPGRFERILLRAANTHSSAKPCGQQSIHLGGVFELQPGASVFVNVTDPSQVSHGTGFTSFGLLKL
staining with β3 integrin 759-tyrosine phosphospecific antibody (washed platelets): stained positive
